“And” between values parts separate entries of the source, which are not always exact repeats. Equal values may be shown once. Read-outs that look alike come from different tables or passages of the source.
Legend:
[1] = ABTS radical cation scavenging activity assay; conditions: 1 h incubation; for ABTS•+-Scavenging Activity, TEAC: Trolox equivalent antioxidant capacity; for IC50: ABTS•+ 100 μM
Experimental: Radical scavenging activity of the compounds was assessed using the ABTS radical cation (ABTS^•+) decolorization assay with modifications, described in detail in [30, 32]. ABTS (2,2′-azino-bis-(3-ethylbenzothiazoline-6-sulfonic acid)) was purchased from Tokyo Chemical Industry Co., Ltd. (Tokyo, Japan), potassium persulfate (dipotassium peroxodisulfate), Trolox (6-hydroxy-2,5,7,8-tetramethylchroman-2-carboxylic acid), HPLC-grade ethanol, and DMSO were obtained from Sigma-Aldrich. All tested compounds were dissolved in DMSO.
The reaction was monitored for 1 h with an interval of 1–10 min. Data are given for 1 h of incubation of compounds with ABTS^•+ (100 μM final concentration). The reduction in absorbance was measured spectrophotometrically at 734 nm using xMark UV/VIS microplate spectrophotometer (Bio-Rad, Hercules, CA, USA). Ethanol blanks were run in each assay. Values were obtained from three replicates of each sample and three independent experiments. Standard antioxidant Trolox was used as a reference compound. Trolox equivalent antioxidant capacity (TEAC) values were determined as the ratio between the slopes obtained from the linear correlation of the ABTS radical absorbance with the concentrations of tested compounds and Trolox.

[2] = system: porcine liver CES; experiment: CES inhibition, 4-NPA substrate; format: biochemical; conditions: compound concentration 20 µM
[3] = target: T1, equine serum BChE (Equus caballus, UniProt P81908); experiment: biochemical; conditions: n = 3
T1 construct: we used human erythrocyte AChE, equine serum BChE, and porcine liver CES; purchased Sigma-Aldrich; host or cells: equine serum

[4] = target: T2, AChE (Homo sapiens, UniProt P22303); experiment: Kinetic study of AChE inhibition (Lineweaver-Burk); format: biochemical; conditions: for type of AChE inhibition: Lineweaver–Burk plots; for Ki: read-out: Ki, the competitive component, AChE
T2 construct: we used human erythrocyte AChE, equine serum BChE, and porcine liver CES; purchased Sigma-Aldrich; host or cells: human erythrocytes
Experimental: (§1) We assessed the mechanisms of AChE and BChE inhibition by performing a thorough analysis of enzyme kinetics. After a 5 min incubation at 25 °C (for temperature equilibration) with three increasing concentrations of inhibitor and six decreasing substrate concentrations, the residual enzyme activity was measured as described above for enzymatic assays.

[5] = target: T3, BChE (Equus caballus, UniProt P81908); experiment: Kinetic study of BChE inhibition (Lineweaver-Burk); format: biochemical; conditions: for type of BChE inhibition: Lineweaver–Burk plots; for Ki: competitive component; for αKi, BChE: non-competitive component
T3 construct: we used human erythrocyte AChE, equine serum BChE, and porcine liver CES; purchased Sigma-Aldrich; host or cells: equine serum
Experimental: as §1

[6] = target: T4, EeAChE PAS (Electrophorus electricus, UniProt O42275); experiment: Propidium iodide displacement from the PAS of EeAChE; format: binding, Electric eel; conditions: compound concentration 20 µM
T4 construct: purchased Sigma-Aldrich type VI-S
Experimental: The enzyme was Electric eel AChE (EeAChE type VI-S, lyophilized powder, Sigma-Aldrich). We selected this source of AChE for consistency with our other reports and because of the purity, specific activity, and lower cost compared to human AChE.
The assay is based on the high level of fluorescence intensity of propidium iodide bound with AChE decreasing in the presence of test compounds that competitively displace propidium iodide from the AChE PAS [25, 27]. Specificially, EeAChE ([…] final concentration) is incubated with the test compound (20 μM in 1 mM Tris-HCl buffer pH 8.0, 25 °C, for 15 min). Propidium iodide (final concentration 8 μM) is then added for a further 15-min incubation and the fluorescence spectrum is taken (530 nm (excitation) and 600 nm (emission)). The same concentration of propidium iodide in the Tris-HCI buffer was used as the blank. Triplicate determinations were recorded from a FLUOStar Optima microplate reader and results calculated via the following equation:% Displacement = 100 − (IFAChE+ Propidium + inhibitor/IFAChE + Propidium) × 100(1) where IFAChE + Propidium = fluorescence intensity of propidium iodide associated with AChE in the absence of the test compound (taken as 100%), and IFAChE + Propidium + inhibitor = fluorescence intensity of propidium iodide associated with AChE in the presence of the test compound.

[7] = target: T5, human erythrocyte AChE (Homo sapiens, UniProt P22303); experiment: biochemical
[8] = Ferric reducing antioxidant power (FRAP) assay; design: key: ratio of Trolox to test compound concentration giving same FRAP effect; conditions: Trolox equivalents; compound concentration 20 µM
Experimental: The ferric reducing antioxidant power (FRAP) assay proposed by Benzie and Strain [106, 107] was modified to be performed in 96-well microplates, as described in detail in [32]. The FRAP reagent contained 2.5 mL of 10 mM TPTZ (2,4,6-tris(2-pyridyl)-s-triazine, Sigma-Aldrich) solution in 40 mM HCl, 2.5 mL of 20 mM FeCl3 (Sigma-Aldrich) in distilled water and 25 mL of 0.3 M acetate buffer (pH 3.6). Aliquots of 10 µL of the tested compound (compounds 3, 5 or reference substance) dissolved in DMSO (0.5 mM) were placed in quadruplicate. Absorbance was measured at the wavelength of 593 nm after 60-min incubation at 37 °C. In each case, Trolox was used as a reference compound to obtain the standard curve and value was calculated with respect to the activity of Trolox and expressed as Trolox equivalents (TE)—the values calculated as the ratio of the concentrations of Trolox and the test compound, resulting in the same effect on ferric reducing activity.

[9] = target: β-amyloid (1–42) (Aβ42) (Homo sapiens, UniProt P05067); experiment: Inhibition of Aβ42 self-aggregation, Thioflavin T fluorescence; format: biochemical; conditions: Aβ42 50 µM, compound 100 µM
Experimental: The inhibitory effect of the test compounds toward Aβ42 self-aggregation was determined using the Thioflavin T (ThT) fluorescence method with minor modifications. […] Therefore, the decrease in ThT fluorescence correlates with the activity of studied compounds to inhibit the formation of amyloid aggregates.
A total of 1 mg of lyophilized HFIP-pretreated Aβ42 from rPeptide (Watkinsville, GA, USA) was dissolved in DMSO to obtain a stable initial solution ([Aβ42] = 500 μM), then it was aliquoted and stored at −20 °C.
Then, the samples were incubated for 24 h at 37 °C without stirring in the absence (base level of Aβ42 self-aggregation, control) or presence of the test compounds. Myricetin and propidium iodide were used as references (positive controls). All compounds were used at a concentration of 100 µM. […] Analyses were performed with a FLUOStar Optima microplate reader (LabTech, Ortenberg, Germany). […] Each assay was run in triplicate.

[10] = target: T5, human erythrocyte AChE; conditions: 5d (m = 5) relative to 5a (m = 2)
[11] = mean ± SEM, read-out: Equine Serum BChE, IC50

T1 sequence (P81908 whole entry): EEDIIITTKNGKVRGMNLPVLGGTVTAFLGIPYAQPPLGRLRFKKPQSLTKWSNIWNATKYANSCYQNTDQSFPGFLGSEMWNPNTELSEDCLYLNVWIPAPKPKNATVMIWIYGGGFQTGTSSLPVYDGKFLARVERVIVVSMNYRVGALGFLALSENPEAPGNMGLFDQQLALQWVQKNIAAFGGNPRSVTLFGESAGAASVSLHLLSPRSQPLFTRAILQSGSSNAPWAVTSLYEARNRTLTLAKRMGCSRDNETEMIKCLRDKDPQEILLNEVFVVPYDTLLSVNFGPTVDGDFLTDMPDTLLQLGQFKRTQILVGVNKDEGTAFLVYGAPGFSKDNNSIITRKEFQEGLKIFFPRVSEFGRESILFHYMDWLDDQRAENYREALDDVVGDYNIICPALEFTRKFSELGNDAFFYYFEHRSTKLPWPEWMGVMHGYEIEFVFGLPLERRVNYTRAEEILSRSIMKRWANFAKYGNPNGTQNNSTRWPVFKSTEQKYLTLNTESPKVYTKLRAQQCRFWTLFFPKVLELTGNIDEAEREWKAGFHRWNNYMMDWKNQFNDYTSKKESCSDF
T3 sequence (P81908 whole entry): as above
T4 sequence (O42275 24-633): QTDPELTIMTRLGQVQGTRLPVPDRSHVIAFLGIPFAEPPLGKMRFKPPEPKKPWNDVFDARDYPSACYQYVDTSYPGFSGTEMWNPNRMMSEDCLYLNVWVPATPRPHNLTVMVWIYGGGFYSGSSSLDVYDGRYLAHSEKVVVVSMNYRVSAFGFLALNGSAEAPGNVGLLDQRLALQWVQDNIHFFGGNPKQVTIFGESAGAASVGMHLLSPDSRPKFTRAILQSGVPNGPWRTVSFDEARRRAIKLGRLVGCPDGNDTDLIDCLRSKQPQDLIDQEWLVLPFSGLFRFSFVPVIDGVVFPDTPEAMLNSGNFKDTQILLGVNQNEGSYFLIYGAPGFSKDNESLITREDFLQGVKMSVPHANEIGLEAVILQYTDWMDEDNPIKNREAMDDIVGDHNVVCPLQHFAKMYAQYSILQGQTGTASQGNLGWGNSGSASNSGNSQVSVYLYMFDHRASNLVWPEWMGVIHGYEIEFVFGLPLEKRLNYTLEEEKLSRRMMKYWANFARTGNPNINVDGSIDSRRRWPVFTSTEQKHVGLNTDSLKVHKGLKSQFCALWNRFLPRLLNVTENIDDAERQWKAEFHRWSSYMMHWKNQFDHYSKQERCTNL
T2 sequence (P22303 other isoform, or with tags, fused parts or gaps): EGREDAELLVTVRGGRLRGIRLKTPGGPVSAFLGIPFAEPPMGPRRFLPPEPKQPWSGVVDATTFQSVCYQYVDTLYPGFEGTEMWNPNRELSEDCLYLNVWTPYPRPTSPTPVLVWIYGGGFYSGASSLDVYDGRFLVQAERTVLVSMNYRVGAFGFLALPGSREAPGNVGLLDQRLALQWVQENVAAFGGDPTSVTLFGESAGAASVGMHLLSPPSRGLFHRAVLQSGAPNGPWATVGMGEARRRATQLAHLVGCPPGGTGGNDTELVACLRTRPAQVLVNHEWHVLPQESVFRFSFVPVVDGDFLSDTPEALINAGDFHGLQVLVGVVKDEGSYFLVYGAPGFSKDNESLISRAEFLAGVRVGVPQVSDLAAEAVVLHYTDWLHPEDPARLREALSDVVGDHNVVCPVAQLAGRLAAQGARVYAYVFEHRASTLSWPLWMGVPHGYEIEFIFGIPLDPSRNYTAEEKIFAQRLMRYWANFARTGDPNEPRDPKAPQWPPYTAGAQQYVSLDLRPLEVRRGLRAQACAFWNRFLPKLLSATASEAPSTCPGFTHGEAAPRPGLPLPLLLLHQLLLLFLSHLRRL
T5 sequence (P22303 other isoform, or with tags, fused parts or gaps): as above
Sequence of β-amyloid (1–42) (Aβ42) (P05067 672-713): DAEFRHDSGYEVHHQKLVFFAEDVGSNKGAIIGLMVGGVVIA

| Structure (SMILES) | ABTS•+-Scavenging Activity, TEAC [1] | Porcine Liver CES, (%) inhibition [2] | IC50 [3, 11] | αKi, the non-competitive component, AChE [4] [µM] | type of AChE inhibition [4] | Ki [4] [µM] | type of BChE inhibition [5] | Ki [5] [µM] | αKi, BChE [5] [µM] | Displacement of Propidium from EeAChE PAS [6] [%] | IC50 [1] | IC50 [7] [µM] | FRAP, TE [8] | IC50 ([3]; MEAN ± SEM, read-out: IC50 for BChE inhibition (Figure S25)) [µM] | inhibition at 100 µM [9] [%] | enhancement of anti-AChE activity, fold [10] [fold] | Inhibition of Aβ42 Self-Aggregation [9] [%] |
| --- | --- | --- | --- | --- | --- | --- | --- | --- | --- | --- | --- | --- | --- | --- | --- | --- | --- |
| Nc1c2c(nc3c1CCC3)CCCC2 [Amiridine] | 0.04 ± 0.003 |  |  |  |  |  |  |  |  |  |  |  |  |  |  |  |  |
| O=[N+]([O-])c1ccc(OP(=O)(O)Oc2ccc([N+](=O)[O-])cc2)cc1 [BNPP, bis-4-nitrophenyl phosphate, reference compound] |  | 99.1 ± 0.93 ^3% |  |  |  |  |  |  |  |  |  |  |  |  |  |  |  |
| O=C(CNCCNCC(=O)Nc1c2c(nc3c1CCC3)CCCC2)Nc1c2c(nc3c1CCC3)CCCC2 [Compound 3a] | 0.10 ± 0.004 | 4.8 ± 0.4% | 0.11 ± 0.004 µM | 2.62 ± 0.13 | mixed-type inhibition | 0.772 ± 0.047 | mixed-type inhibition | 0.0578 ± 0.0025 | 0.189 ± 0.007 | 14.4 ± 1.2 | ~180 µM | 1.64 ± 0.08 |  |  |  |  |  |
| O=C(CNCCCNCC(=O)Nc1c2c(nc3c1CCC3)CCCC2)Nc1c2c(nc3c1CCC3)CCCC2 [Compound 3b] | 0.05 ± 0.003 | 4.4 ± 0.5% | 0.128 ± 0.002 µM |  |  |  |  |  |  | 14.7 ± 1.2 | > 200 µM | 2.91 ± 0.74 | 0.05 ± 0.01 |  |  |  |  |
| O=C(CNCCCCNCC(=O)Nc1c2c(nc3c1CCC3)CCCC2)Nc1c2c(nc3c1CCC3)CCCC2 [Compound 3c] | 0.10 ± 0.005 | 0.8 ± 0.2% | 0.067 ± 0.001 µM |  |  |  |  |  |  | 17.7 ± 1.4 | ~200 µM | 1.46 ± 0.03 |  | 0.0696 |  |  |  |
| O=C(CNCCCCCCNCC(=O)Nc1c2c(nc3c1CCC3)CCCC2)Nc1c2c(nc3c1CCC3)CCCC2 [Compound 3d] |  | 6.0 ± 0.6% | 1.11 ± 0.04 µM |  |  |  |  |  |  | 11.2 ± 0.8 |  | 1.39 ± 0.1 |  |  |  |  |  |
| O=C(CNCCCCCCCCNCC(=O)Nc1c2c(nc3c1CCC3)CCCC2)Nc1c2c(nc3c1CCC3)CCCC2 [Compound 3e] | 0.04 ± 0.002 | 5.1 ± 0.9% | 6.65 ± 0.5 µM |  |  |  |  |  |  | 13.2 ± 1.0 | > 200 µM | 11.7 ± 1.1 | 0.05 ± 0.01 |  |  |  |  |
| S=C(NCCNC(=S)Nc1c2c(nc3c1CCC3)CCCC2)Nc1c2c(nc3c1CCC3)CCCC2 [Compound 5a, 2,2′-Ethane-1,2-diylbis[N-(2,3,5,6,7,8-hexahydro-1H-cyclopenta[b]quinolin-9-yl)(thiourea)]] | 2.1 ± 0.07 | 4.3 ± 0.2% | 4.08 ± 0.23 µM |  |  |  |  |  |  | 7.6 ± 0.6 | 7.6 ± 0.4 µM | 96 ± 3.7 | 0.52 ± 0.04 |  | 2.9 ± 0.2 |  |  |
| S=C(NCCCNC(=S)Nc1c2c(nc3c1CCC3)CCCC2)Nc1c2c(nc3c1CCC3)CCCC2 [Compound 5b] | 1.9 ± 0.08 | 4.2 ± 0.5% | 0.689 ± 0.025 µM |  |  |  |  |  |  | 9.3 ± 0.8 | 9.9 ± 0.5 µM | 10.9 ± 1 | 0.50 ± 0.03 |  | 1.6 ± 0.1 |  |  |
| S=C(NCCCCNC(=S)Nc1c2c(nc3c1CCC3)CCCC2)Nc1c2c(nc3c1CCC3)CCCC2 [Compound 5c] | 1.8 ± 0.05 | 9.6 ± 0.8% | 0.802 ± 0.081 µM |  |  |  |  |  |  | 10.0 ± 0.8 | 9.7 ± 0.6 µM | 7.53 ± 0.59 | 0.35 ± 0.02 |  | 17.2 ± 1.5 |  |  |
| S=C(NCCCCCNC(=S)Nc1c2c(nc3c1CCC3)CCCC2)Nc1c2c(nc3c1CCC3)CCCC2 [Compound 5d] | 1.6 ± 0.06 | 12.8 ± 1.1% | 0.76 µM and 0.758 µM | 7.75 ± 0.11 | mixed-type inhibition | 1.18 ± 0.08 | mixed-type inhibition | 0.34 ± 0.012 | 1.85 ± 0.06 | 11.2 ± 1.0 | 10.9 ± 0.7 µM | 4.01 ± 0.13 | 0.45 ± 0.03 |  | 12.8 ± 1.1 | 24 |  |
| S=C(NCCCCCCNC(=S)Nc1c2c(nc3c1CCC3)CCCC2)Nc1c2c(nc3c1CCC3)CCCC2 [Compound 5e] | 1.5 ± 0.07 | 10.3 ± 1.0% | 0.769 ± 0.02 µM |  |  |  |  |  |  | 11.1 ± 0.9 | 10.9 ± 0.7 µM | 4.08 ± 0.46 | 0.49 ± 0.01 |  | 14.3 ± 1.1 |  |  |
| S=C(NCCCCCCCNC(=S)Nc1c2c(nc3c1CCC3)CCCC2)Nc1c2c(nc3c1CCC3)CCCC2 [Compound 5f] | 1.2 ± 0.05 | 5.8 ± 0.3% | 1.18 ± 0.08 µM |  |  |  |  |  |  | 2.5 ± 0.2 | 12.4 ± 0.8 µM | 6.28 ± 0.46 | 0.55 ± 0.01 |  | 3.7 ± 0.3 |  |  |
| S=C(NCCCCCCCCNC(=S)Nc1c2c(nc3c1CCC3)CCCC2)Nc1c2c(nc3c1CCC3)CCCC2 [Compound 5g] | 1.5 ± 0.07 | 15.9 ± 1.5% | 1.45 ± 0.09 µM |  |  |  |  |  |  | 2.2 ± 0.2 | 10.8 ± 0.6 µM | 26.6 ± 0.6 | 0.85 ± 0.03 |  | 5.2 ± 0.4 |  |  |
| CC[N+](C)(CC)CCC[n+]1c(-c2ccccc2)c2cc(N)ccc2c2ccc(N)cc21.[I-].[I-] [Propidium iodide, reference compound] |  |  |  |  |  |  |  |  |  |  |  |  |  |  |  |  | 90.7 ± 7.1 |
| Cc1c(C)c2c(c(C)c1O)CCC(C)(C(=O)O)O2 (stereo not shown) [Trolox, 6-hydroxy-2,5,7,8-tetramethylchroman-2-carboxylic acid, reference compound] | 1.0 |  |  |  |  |  |  |  |  |  | 20 µM and 20.1 µM |  | 1.0 |  |  |  |  |
